What was measured:
PODANSg2158 = biological target: T1, PODANSg2158 (Podospora anserina, UniProt B2AM55); experiment: X-ray crystal structure, […] Å; type: binding; conditions: wild-type enzyme; FAD in each of four subunits; pH 6 crystals
T1 sequence (B2AM55 1-430): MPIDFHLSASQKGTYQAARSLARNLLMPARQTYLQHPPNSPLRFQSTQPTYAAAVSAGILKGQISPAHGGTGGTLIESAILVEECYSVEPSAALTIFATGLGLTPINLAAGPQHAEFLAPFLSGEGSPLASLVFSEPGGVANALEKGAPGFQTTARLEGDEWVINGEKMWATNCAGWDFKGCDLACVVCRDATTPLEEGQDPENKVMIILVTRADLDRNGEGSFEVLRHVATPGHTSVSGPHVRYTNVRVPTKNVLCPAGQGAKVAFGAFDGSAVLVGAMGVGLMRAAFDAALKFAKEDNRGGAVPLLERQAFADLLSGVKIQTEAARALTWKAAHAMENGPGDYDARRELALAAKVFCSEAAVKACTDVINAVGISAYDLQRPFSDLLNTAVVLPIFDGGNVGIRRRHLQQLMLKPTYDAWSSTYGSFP

Asp402 = Asp402 (UniProt position 402, CYPLFDGGNIG); experiment: kinetics; conditions: free enzyme; substrate nitroethane; cited from earlier work

Compound	X-ray crystal structure, 2.0 Å (PODANSg2158)	pKa (Asp402)
Cc1cc2nc3c(=O)[nH]c(=O)nc-3n(C[C@H](O)[C@H](O)[C@H](O)COP(=O)(O)OP(=O)(O)OC[C@H]3O[C@@H](n4cnc5c(N)ncnc54)[C@H](O)[C@@H]3O)c2cc1C [FAD]	FAD could be clearly identified in each of the subunits.	–
Nitroalkane oxidase (NAO) (Fusarium oxysporum)	–	6.9
